Assay results as given in patent US20030036633A1, “DNA encoding bradykinin B1 receptor” (Merck & Co., Inc., priority 1994, published 2003).
“Also recorded” adds a separate entry of the source. Like-named read-outs stand apart in the source and are kept apart here. Residues, ends and D or L forms follow the SMILES beside them.

How the values were obtained:
[1] = biological target: T1, B1 receptor in IMR-90 cells (Homo sapiens, UniProt P46663); experiment: Displacement of 1 nM [3H]des-Arg10kallidin, membrane binding assay, IMR-90
T1 construct: 33E9) with the B1 receptor in IMR-90 cells (IMR-90); endogenous in cells; host or cells: IMR-90 cells (ATCC CCL 186)
T1 sequence (P46663 1-353): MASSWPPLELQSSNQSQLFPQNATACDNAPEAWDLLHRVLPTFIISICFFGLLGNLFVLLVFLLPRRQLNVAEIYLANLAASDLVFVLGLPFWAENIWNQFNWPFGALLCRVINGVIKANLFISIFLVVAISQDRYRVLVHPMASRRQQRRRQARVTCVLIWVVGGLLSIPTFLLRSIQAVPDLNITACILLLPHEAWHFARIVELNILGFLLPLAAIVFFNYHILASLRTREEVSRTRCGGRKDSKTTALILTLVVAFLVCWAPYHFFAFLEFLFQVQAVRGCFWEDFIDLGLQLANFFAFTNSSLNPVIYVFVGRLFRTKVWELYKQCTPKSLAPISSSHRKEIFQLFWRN

[2] = biological target: T2, cloned human B1 bradykinin receptor in transiently transfected COS-7 cells (COS 33E9) (Homo sapiens, UniProt P46663); experiment: Displacement of 1 nM [3H]des-Arg10kallidin, membrane binding assay, COS 33E9; settings: for affinity for / displacement of [3H]des-Arg10kallidin from the cloned receptor, in words: cloned B1 receptor expressed in COS-7 cells
T2 construct: the full-length open reading frame of the B1 DNA (encoding a protein of about 40.4 kDa =about base 209 to about base 1267); expressed in transfected cells; host or cells: COS-7 cells, transient electroporation of clone 33E9 (pcDNA3 library vector)
T2 sequence (P46663 1-353): T1 sequence (P46663 1-353)
Procedure: Transient expression of the cloned B1 bradykinin receptor in COS-7 cells was accomplished by electroporation using a Biorad Gene Pulser. […] Binding assays were performed at room temperature for 45 minutes. Reactions were terminated by filtration using an Inotech cell harvester onto glass fiber filters (Inotech) that had been briefly soaked in 0.3% polyethyleneimine. The filters were washed five times with 1 ml per well of cold PBS and counted in a liquid scintillation counter. Alternatively, reactions were collected using a Tomtec cell harvester 96 onto 0.3% polyethyleneimine presoaked glass fiber filters (Pharmacia, printed filtermat for use with the 1205 Betaplate). The filter was washed five times with a total of 10 ml per well of cold 1× PBS, dried and sealed in a bag (Pharmacia) containing scintillation fluid. Counting was accomplished using a LKB1205 Betaplate liquid scintillation counter.

[3] = biological target: T3, B1 bradykinin receptor present in human aorta (Homo sapiens, UniProt P46663); experiment: Affinity at B1 bradykinin receptor present in human aorta; type: binding; settings: R.W.R, unpublished data
T3 construct: The B1 bradykinin receptor present in human aorta; from tissue; host or cells: human aorta
T3 sequence (P46663 1-353): T1 sequence (P46663 1-353)

[4] = biological target: T4, B1 bradykinin receptor in IMR-90 cells (human, UniProt P46663 1-353); experiment: displacement of 1 nM [3H]des-Arg10kallidin, membrane binding assay, IMR-90 cells
T4 construct: whole, on cells; Endogenous receptor; also called B1 receptor expressed in IMR-90 cells
T4 sequence (looked up): T1 sequence (P46663 1-353)
Procedure: Binding assays were performed at room temperature for 45 minutes. Reactions were terminated by filtration using an Inotech cell harvester onto glass fiber filters (Inotech) that had been briefly soaked in 0.3% polyethyleneimine. The filters were washed five times with 1 ml per well of cold PBS and counted in a liquid scintillation counter. Alternatively, reactions were collected using a Tomtec cell harvester 96 onto 0.3% polyethyleneimine presoaked glass fiber filters (Pharmacia, printed filtermat for use with the 1205 Betaplate). The filter was washed five times with a total of 10 ml per well of cold 1× PBS, dried and sealed in a bag (Pharmacia) containing scintillation fluid. Counting was accomplished using a LKB₁₂₀₅ Betaplate liquid scintillation counter.
The IC₅₀'s were determined by the displacement of 1 nM [³H]des- Arg¹⁰kallidin in the membrane binding assay described above.

[5] = biological target: cloned human B1 bradykinin receptor (clone 33E9) (human) (UniProt P46663); experiment: displacement of 1 nM [3H]des-Arg10kallidin, membrane binding assay, COS-7 cells transiently transfected with clone 33E9
B1 receptor = biological target: T5, B1 receptor (Homo sapiens, UniProt P46663); experiment: Electrophysiology of cRNA-injected Xenopus oocytes monitoring the Ca2+ sensitive Cl- channel; type: cell-based; settings: oocytes injected with cRNA of strongest positive pool
T5 construct: expressed in transfected cells; host or cells: Xenopus laevis oocytes injected with cRNA from a pool of about 800 library clones
T5 sequence (P46663 1-353): T1 sequence (P46663 1-353)

IMR-90 cells = experiment: IL-1beta treatment of IMR-90 cells, number of B1 bradykinin receptors; type: cell-based, human
[6] = displacement of 1 nM [3H]des-Arg10kallidin, IMR-90 membranes, read-out: IC50, IMR-90
[7] = displacement of 1 nM [3H]des-Arg10kallidin, membranes of transiently transfected COS-7 cells, read-out: IC50, COS 33E9

**Q.** Which results are given for `CC[C@H](C)[C@H](NC(=O)[C@H](CC(=O)O)NC(=O)[C@H](CC(C)C)NC(=O)[C@H](Cc1cnc[nH]1)NC(=O)[C@@H]1CSSC[C@H](N)C(=O)N[C@@H](CO)C(=O)N[C@H]2CSSC[C@H](NC(=O)[C@H](CCC(=O)O)NC(=O)[C@H](CCCCN)NC(=O)[C@H](CC(=O)O)NC(=O)[C@H](CCSC)NC(=O)[C@H](CC(C)C)NC(=O)[C@H](CO)NC(=O)[C@H](CO)NC2=O)C(=O)N[C@@H](C(C)C)C(=O)N[C@@H](Cc2ccc(O)cc2)C(=O)N[C@@H](Cc2ccccc2)C(=O)N1)C(=O)N[C@H](C(=O)N[C@@H](Cc1c[nH]c2ccccc12)C(=O)O)[C@@H](C)CC` [Endothelin I]?
**A.** IC50 [1, 6]: > 1 µM; IC50 [2, 7]: > 1 µM

**Q.** Which IC50 [1, 6] does the source give for `CC[C@H](C)[C@@H]1NC(=O)[C@H](Cc2ccc(O)cc2)NC(=O)[C@@H](N)CSSC[C@@H](C(=O)N2CCC[C@H]2C(=O)N[C@@H](CC(C)C)C(=O)NCC(N)=O)NC(=O)[C@H](CC(N)=O)NC(=O)[C@H](CCC(N)=O)NC1=O` [Oxytocin] here?
**A.** > 10 µM

**Q.** What about the IC50 [2, 7] of the same molecule?
**A.** > 10 µM

**Q.** How did the “affinity for / displacement of [3H]des-Arg10kallidin from the cloned receptor, in words” value (“affinity for / displacement” below) [2] turn out when “[des-Arg^10],[3,4-^3H(N)]-kallidin [[^3H]des-Arg^10kallidin]” was run?
**A.** high affinity binding

**Q.** Which affinity [3] does the source give for des-Arg^9bradykinin here?
**A.** > 1000 nM

**Q.** And the “affinity for the B1 receptor in IMR-90 cells, in words” value ([1]; IMR-90 cells)?
**A.** relatively low affinity

**Q.** And the “affinity for / displacement” value [2]?
**A.** relatively low affinity

**Q.** What does the source list for des-Arg^10HOE 140 (peptide)?
**A.** IC50 [4]: 0.04 µM; IC50 [5]: 0.094 µM

**Q.** For `NC(N)=NCCC[C@H](NC(=O)[C@H](Cc1ccccc1)NC(=O)[C@@H]1CCCN1C(=O)[C@H](CO)NC(=O)[C@H](Cc1ccccc1)NC(=O)CNC(=O)[C@@H]1CCCN1C(=O)[C@@H]1CCCN1C(=O)[C@@H](N)CCCN=C(N)N)C(=O)O` [Bradykinin] (H-RPPGFSPFR-OH), which IC50 [1] is on record?
**A.** > 10 µM

**Q.** And the IC50 [2]?
**A.** > 10 µM

**Q.** For `NC(N)=NCCC[C@@H](N)C(=O)N[C@@H](CCCN=C(N)N)C(=O)N1CCC[C@H]1C(=O)N1C[C@H](O)C[C@H]1C(=O)NCC(=O)N[C@@H](Cc1cccs1)C(=O)N[C@@H](CO)C(=O)N1Cc2ccccc2C[C@@H]1C(=O)N1[C@H](C(=O)N[C@@H](CCCN=C(N)N)C(=O)O)C[C@@H]2CCCC[C@@H]21` [Hoe 140], which IC50 [1, 6] is on record?
**A.** > 10 µM

**Q.** What about the IC50 [2, 7] of the same molecule?
**A.** > 10 µM

**Q.** How did the “affinity for / displacement” value [2] turn out when des-Arg^9Leu^8bradykinin was run?
**A.** high affinity binding

**Q.** What does the source list for `CC[C@H](C)[C@H](NC(=O)[C@H](CCCNC(=N)N)NC(=O)[C@H](CCCNC(=N)N)NC(=O)[C@H](CC(C)C)NC(=O)[C@H](Cc1ccccc1)NC(=O)CNC(=O)CNC(=O)[C@@H](N)Cc1ccc(O)cc1)C(=O)N[C@@H](CCCNC(=N)N)C(=O)N1CCC[C@H]1C(=O)N[C@@H](CCCCN)C(=O)N[C@@H](CC(C)C)C(=O)N[C@@H](CCCCN)C(=O)N[C@@H](Cc1c[nH]c2ccccc12)C(=O)N[C@@H](CC(=O)O)C(=O)N[C@@H](CC(N)=O)C(=O)N[C@@H](CCC(N)=O)C(=O)O` [Dynorphin(1-17)]?
**A.** IC50 [1]: > 7 µM; IC50 [2]: > 7 µM

**Q.** For `CC[C@H](C)[C@H](NC(=O)[C@H](Cc1ccc(O)cc1)NC(=O)[C@@H](NC(=O)[C@H](CCCNC(=N)N)NC(=O)[C@@H](N)CC(=O)O)C(C)C)C(=O)N[C@@H](Cc1cnc[nH]1)C(=O)N1CCC[C@H]1C(=O)N[C@@H](Cc1ccccc1)C(=O)O` [Angiotensin II], which IC50 [1, 6] is on record?
**A.** > 10 µM

**Q.** What about the IC50 [2, 7] of the same molecule?
**A.** > 10 µM

**Q.** `NC(=O)CC[C@@H]1NC(=O)[C@H](Cc2ccccc2)NC(=O)[C@H](Cc2ccc(O)cc2)NC(=O)[C@@H](N)CSSC[C@@H](C(=O)N2CCC[C@H]2C(=O)N[C@@H](CCCN=C(N)N)C(=O)NCC(N)=O)NC(=O)[C@H](CC(N)=O)NC1=O` [Arg Vasopressin] was tested. Which IC50 [1] did it give?
**A.** > 10 µM

**Q.** And the IC50 [2]?
**A.** > 10 µM

**Q.** Which results are given for `N=C(N)NCCC[C@H](N)C(=O)N1CCC[C@H]1C(=O)N1CCC[C@H]1C(=O)NCC(=O)N[C@@H](Cc1ccccc1)C(=O)N[C@@H](CO)C(=O)N1CCC[C@H]1C(=O)O` [Bradykinin(1-7)] (H-RPPGFSP-OH)?
**A.** IC50 [1]: > 10 µM; IC50 [2]: > 10 µM

**Q.** `CC(C)C[C@H](NC(=O)[C@H](Cc1ccccc1)NC(=O)CNC(=O)CNC(=O)[C@@H](N)Cc1ccc(O)cc1)C(=O)O` [Leu-Enkephalin] was tested. Which IC50 [1] did it give?
**A.** > 10 µM

**Q.** And the IC50 [2]?
**A.** > 10 µM

**Q.** Which IC50 [1, 6] does the source give for `CSCC[C@H](NC(=O)[C@H](CC(C)C)NC(=O)CNC(=O)[C@H](Cc1ccccc1)NC(=O)[C@H](Cc1ccccc1)NC(=O)[C@H](CCC(N)=O)NC(=O)[C@H](CCC(N)=O)NC(=O)[C@@H]1CCCN1C(=O)[C@H](CCCCN)NC(=O)[C@@H]1CCCN1C(=O)[C@@H](N)CCCN=C(N)N)C(N)=O` [Substance P] here?
**A.** > 10 µM

**Q.** And the IC50 [2, 7]?
**A.** > 10 µM

**Q.** Which IC50 [1] does the source give for `CC[C@H](C)[C@H](NC(=O)[C@H](Cc1ccc(O)cc1)NC(=O)[C@@H]1CCCN1C(=O)[C@H](CCCNC(=N)N)NC(=O)[C@H](CCCNC(=N)N)NC(C)=O)C(=O)N[C@@H](CC(C)C)C(=O)O` [Acetylated Neurotensin(8-13)] here?
**A.** > 10 µM

**Q.** And the IC50 [2]?
**A.** > 10 µM

**Q.** des-Arg^10kallidin was tested. Which “agonist response of Ca2+ sensitive Cl- channel” value (B1 receptor) did it give?
**A.** produced a response

**Q.** With IL-1β: cytokine IL-1β (R & D Systems) as the molecule, how does the “stimulation of the number of B1 bradykinin receptors” value (IMR-90 cells) read?
**A.** approximately 7 fold

**Q.** How did the “block of des-Arg10kallidin response” value (B1 receptor) turn out when des-Arg^10Leu^9kallidin was run?
**A.** blocked

**Q.** What about the “affinity for / displacement” value [2] of the same molecule?
**A.** high affinity binding; also recorded: effectively displaces

**Q.** What does the source list for `N=C(N)NCCC[C@H](NC(=O)[C@H](Cc1ccccc1)NC(=O)[C@@H]1CCCN1C(=O)[C@H](CO)NC(=O)[C@H](Cc1ccccc1)NC(=O)CNC(=O)[C@@H]1CCCN1C(=O)[C@@H]1CCCN1)C(=O)O` [Bradykinin(2-9)] (H-PPGFSPFR-OH; N-terminus and C-terminus assumed)?
**A.** IC50 [1, 6]: > 10 µM; IC50 [2, 7]: > 10 µM
